A value given as a limit tells only on which side of the number the result lay.

The target in the test is T1, Caspase-3 (Homo sapiens, UniProt P42574).
T1 sequence (P42574 whole entry): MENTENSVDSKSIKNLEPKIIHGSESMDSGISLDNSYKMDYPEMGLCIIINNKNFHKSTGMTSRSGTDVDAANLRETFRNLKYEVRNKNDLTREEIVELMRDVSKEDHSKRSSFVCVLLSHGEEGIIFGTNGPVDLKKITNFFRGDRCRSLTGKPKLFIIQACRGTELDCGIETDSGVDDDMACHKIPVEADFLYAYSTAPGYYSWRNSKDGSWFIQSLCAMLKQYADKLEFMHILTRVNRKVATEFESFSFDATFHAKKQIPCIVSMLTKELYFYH
The test is described as follows: activators of human procaspase-3 D3A mutant – biochemical, absorbance, PC-3 D3A mutant, counter-screen for dual procaspase-3/7 activator project, dose response (AID 504328). On the technique in general: The purpose of a counterscreen is to sort out artefacts and off-target activity.
As usually defined, the EC50 is the midpoint of the concentration-response curve. Consider `COc1ccccc1-n1c(O)c2n(-c3ccccc3)[nH]c(C(=O)c3ccccc3)c-2c1=O`, for which the concentration giving a half-maximal response (EC50) was over 85.3 µM.

`O=C(c1ccccc1)c1[nH]n(-c2ccccc2)c2c(O)n(-c3ccccc3)c(=O)c1-2` [3-benzoyl-1,5-diphenyl-3a,6a-dihydropyrrolo[3,4-c]pyrazole-4,6-dione] yielded an EC50 of over 85.3 µM.

`Cc1[nH]nc2c1C(c1c[nH]c3ccccc13)C(C#N)C(=N)O2` (configuration not stated) [MLS001030009]: the concentration giving a half-maximal response (EC50) is 23.1 µM.

For the compound `COC(=O)c1[nH]n(-c2ccc(Cl)cc2)c2c(O)n(-c3ccccc3OC)c(=O)c1-2` [1-(4-Chloro-phenyl)-5-(2-methoxy-phenyl)-4,6-dioxo-1,3a,4,5,6,6a-hexahydro-pyrrolo[3,4-c]pyrazole-3-carboxylic acid methyl ester], the EC50 is over 85.3 µM.

For the compound `CCOC(=O)C(C#N)C=Nc1cc(OC)ccc1OC` (configuration not stated) [(E)-2-Cyano-3-(2,5-dimethoxy-phenylamino)-acrylic acid ethyl ester], the EC50 was over 85.3 µM.

The compound `C=CC=Nc1c(Cl)c(O)n(-c2cccc(Cl)c2Cl)c1O` [MLS000533809] came in with an EC50 of over 85.3 µM.

Compound `CCOc1ccc(NC=C2C(=O)CC(c3ccco3)CC2=O)cc1` (configuration not stated) [SMR000268302] returned an EC50 of over 85.3 µM.

The values are drawn from BindingDB's records for doi:10.7270/Q24M9315 (The Scripps Research Institute Molecular Screening Center, 2011).
